Source: patent publication US20100160356A1, “NOVEL CYCLOBUTYL COMPOUNDS AS KINASE INHIBITORS” (priority 2006, published 2010)

Assays:
[1] = biological target: T1, insulin receptor (InsR) (Homo sapiens, UniProt P06213); test: Inhibition of InsR (ELISA assay), insulin-stimulated autophosphorylation in cells; type: cell-based; conditions: human cells stimulated with insulin
T1 construct: endogenous in cells; host or cells: HepG2
Protocol: Cultivated human cells which express the insulin receptor (InsR) (for example HepG2) are stimulated using human insulin, the natural ligand of InsR. The stimulation induces autophosphorylation of tyrosine residues in the cytoplasmatic InsR domain, which triggers signal transduction cascades, which initiate various biological reactions of the cells. The amount of phosphorylated InsR is determined by a receptor-specific capture ELISA or an analogous LUMINEX assay. The InsR from cell lysates is bound to a 96-well ELISA plate or LUMINEX beads by means of a specific antibody (“capturing”), and the tyrosine phosphorylation is detected using a biotin-labelled anti-phosphotyrosine antibody and a streptavidin-peroxidase conjugate by a chemiluminescence method or by means of a fluorescence-labelled anti-phosphotyrosine antibody. For determination of the activity of kinase inhibitors, cells are pretreated with increasing concentrations of these compounds for 45 min and subsequently stimulated using insulin for 5 min. As internal control, the biological activity of the ligand insulin is checked, and a concentration series of a reference inhibitor is measured.

T1 sequence (P06213 28-1382): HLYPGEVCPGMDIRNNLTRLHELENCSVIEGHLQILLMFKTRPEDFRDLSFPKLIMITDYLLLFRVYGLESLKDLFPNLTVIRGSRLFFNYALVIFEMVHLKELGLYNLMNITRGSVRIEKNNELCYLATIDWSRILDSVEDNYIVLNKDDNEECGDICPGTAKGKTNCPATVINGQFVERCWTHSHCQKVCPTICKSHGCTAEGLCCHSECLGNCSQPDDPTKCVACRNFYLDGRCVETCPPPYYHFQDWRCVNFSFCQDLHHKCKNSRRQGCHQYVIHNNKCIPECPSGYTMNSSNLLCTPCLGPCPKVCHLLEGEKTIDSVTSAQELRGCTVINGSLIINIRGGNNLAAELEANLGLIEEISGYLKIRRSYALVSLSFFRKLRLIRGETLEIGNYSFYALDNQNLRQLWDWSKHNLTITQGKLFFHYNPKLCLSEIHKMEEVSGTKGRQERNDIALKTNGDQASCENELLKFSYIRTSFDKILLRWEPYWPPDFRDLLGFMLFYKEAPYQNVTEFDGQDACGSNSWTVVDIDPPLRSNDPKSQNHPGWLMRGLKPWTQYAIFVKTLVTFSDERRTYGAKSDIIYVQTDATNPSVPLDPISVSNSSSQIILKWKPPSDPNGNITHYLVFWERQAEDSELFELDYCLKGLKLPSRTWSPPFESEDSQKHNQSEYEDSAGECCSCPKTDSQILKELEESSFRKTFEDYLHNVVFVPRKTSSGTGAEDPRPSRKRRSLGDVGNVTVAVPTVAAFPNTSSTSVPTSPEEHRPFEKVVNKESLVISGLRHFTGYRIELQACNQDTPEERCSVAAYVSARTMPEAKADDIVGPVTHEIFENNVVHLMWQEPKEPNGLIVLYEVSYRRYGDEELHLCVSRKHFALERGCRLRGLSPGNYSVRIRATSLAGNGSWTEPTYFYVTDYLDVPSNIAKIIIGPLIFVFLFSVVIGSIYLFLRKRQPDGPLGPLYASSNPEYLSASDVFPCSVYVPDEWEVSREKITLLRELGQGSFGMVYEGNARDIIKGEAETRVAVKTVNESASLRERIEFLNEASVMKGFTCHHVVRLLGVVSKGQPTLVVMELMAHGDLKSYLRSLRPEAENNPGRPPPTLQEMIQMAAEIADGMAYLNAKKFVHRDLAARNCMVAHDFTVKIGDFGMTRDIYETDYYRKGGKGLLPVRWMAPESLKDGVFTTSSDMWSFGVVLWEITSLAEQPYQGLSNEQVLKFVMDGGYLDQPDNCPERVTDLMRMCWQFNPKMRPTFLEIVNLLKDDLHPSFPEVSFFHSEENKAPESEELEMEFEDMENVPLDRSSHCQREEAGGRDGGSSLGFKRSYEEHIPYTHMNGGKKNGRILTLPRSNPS

IC50 [1] [µM]	melting point [°C]	SMILES
2.1	193 to 194	Nc1ncnc2c1c(-c1cccc(O)c1)cn2C1CC(CN2CCCC2)C1 (stereo not shown) [Compound 1, 3-[4-amino-7-(3-pyrrolidin-1-ylmethylcyclobutyl)-7H-pyrrolo[2,3-d]pyrimidin-5-yl]phenol]
12	142 to 144	NCC1CC(n2cc(-c3ccc4[nH]ccc4c3)c3c(N)ncnc32)C1 (stereo not shown) [Compound 3, 7-(3-Aminomethylcyclobutyl)-5-(1H-indol-5-yl)-7H-pyrrolo[2,3-d]pyrimidin-4-ylamine]
